Experimental data published in US8901307B2, “Chemical compounds 251” (AstraZeneca AB, priority 2008, dated 2014).
Where a name gives a salt, the structure may show the parent alone.

Legend:
human His-PIM1 [2-313] = molecular target: T1, human His-PIM1 [2-313] (Homo sapiens, UniProt P11309); assay: PIM1 in-vitro mobility shift assay (Caliper LC3000, FL-Ahx-Bad phosphorylation); type: biochemical; conditions: 1.5 h; percent inhibition at 0.3 uM compound; read-out: PIM1 % I at 0.3 uM
T1 construct: purified human His-PIM1 [2-313] enzyme; His (N); purchased University of Dundee, Scotland; host or cells: baculovirus system
T1 sequence (P11309 2-313): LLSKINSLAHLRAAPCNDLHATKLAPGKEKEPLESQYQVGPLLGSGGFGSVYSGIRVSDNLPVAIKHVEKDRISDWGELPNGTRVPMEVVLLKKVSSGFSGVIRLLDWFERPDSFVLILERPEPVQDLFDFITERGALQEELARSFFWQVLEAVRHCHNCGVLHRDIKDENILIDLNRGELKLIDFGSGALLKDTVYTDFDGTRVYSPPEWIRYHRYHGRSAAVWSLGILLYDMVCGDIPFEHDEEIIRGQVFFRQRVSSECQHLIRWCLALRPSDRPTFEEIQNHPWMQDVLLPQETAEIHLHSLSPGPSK
Text: PIM1 In-Vitro Mobility Shift Assay
(§1) One may determine the activity of purified human His-PIM1 [2-313] enzyme in-vitro using a mobility shift assay on a Caliper LC3000 reader (Caliper, Mass.), which measures fluorescence of a phosphorylated and unphosphorylated FL-Ahx-Bad (FITC-(AHX)RSRHSSYPAGT-COOH, Primm 200606-00289, Primm Biotech, Mass.) and calculates a ratiometric value to determine percent turnover. One may express PIM1 (University of Dundee, Scotland) in baculovirus system with a typical yield of >85% purity.
(§2) One determines phosphorylation of the FL-Ahx-Bad in the presence and absence of the compound of interest. One preincubates 5 µl of Enzyme/Substrate/adenosine triphosphate (ATP) mix consisting of 2.4 nM PIM1, 3.6 uM FL-Ahx-Bad, and 240 uM ATP in 1.2× buffer with 2 ul of compound for 20 minutes at 25° C. One initiates reactions with 5 ul of Metal mix consisting of 24 mM MgCl2 in 1.2× buffer and incubated at 25° C. for 90 minutes and stops the reactions by addition of 5 ul of Stop mix consisting of 100 mM HEPES, 121 mM ethylenediamine tetraacetic acid, 0.8% Coatin Reagent 3 (Caliper, Mass.), and 0.01% Tween. One detects phosphorylated and unphosphorylated substrate by a Caliper LC3000 reader (Caliper, Mass.) in the presence of separation buffer consisting of 100 mM HEPES, 16 mM ethylenediamine tetraacetic acid, 0.1% Coatin Reagent 3 (Caliper, Mass.), 0.015% Brij-35, 5% DMSO, and 5.6 mM MgCl2. One may use the following separation conditions for a Caliper LC3000: −1.0 PSI, −2000 V upstream voltage, −400 V downstream voltage, 0.2 second sample sip, 45 second post sip, 10% laser strength.
The table 1 below provides the percent inhibition of PIM1 at 0.3 micromolar for Examples provided herein. Several examples were tested more than once. Variations in the experimental outcomes, negative values, or values over 100% inhibition are presumably due to experimental error inherent in the assay.

human His-PIM2 [23-299] = molecular target: T2, human His-PIM2 [23-299] (Homo sapiens, UniProt Q9P1W9); assay: PIM2 in-vitro mobility shift assay (Caliper LC3000, FL-Ahx-Bad phosphorylation); type: biochemical; conditions: 1.5 h; percent inhibition at 0.3 uM compound; read-out: PIM2 % I at 0.3 uM
T2 construct: purified human His-PIM2 [23-299] enzyme; His (N); host or cells: E. coli
T2 sequence (Q9P1W9 23-299): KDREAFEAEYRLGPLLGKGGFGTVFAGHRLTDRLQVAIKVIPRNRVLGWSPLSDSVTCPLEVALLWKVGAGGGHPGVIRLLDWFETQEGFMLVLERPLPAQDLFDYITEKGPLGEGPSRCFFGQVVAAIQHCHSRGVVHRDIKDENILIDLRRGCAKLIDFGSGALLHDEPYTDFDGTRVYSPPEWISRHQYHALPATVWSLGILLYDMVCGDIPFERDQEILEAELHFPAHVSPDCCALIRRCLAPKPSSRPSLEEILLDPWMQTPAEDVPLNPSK
Text: PIM2 In-Vitro Mobility Shift Assay
as §1, with “His-PIM2 [23-299]” for “His-PIM1 [2-313]”, “PIM2 (produced at AstraZeneca, R&D Boston)” for “PIM1 (University of Dundee, Scotland)”, “E. coli cells” for “baculovirus system”, “>90%” for “>85%”
as §2, with “5 uL” for “5 µl”, “and 12” for “and 240”, “5 uL” for “5 ul”, “and incubates” for “and incubated”, “90 minutes. One” for “90 minutes and”, “stops” for “stops the”

inhibition at 0.3 µM (human His-PIM1 [2-313]) [%] | inhibition at 0.3 µM (human His-PIM2 [23-299]) [%] | Compound
> 95 | > 95 | N[C@H]1CN(c2c(Cl)cccc2/C=C2\SC(=O)NC2=O)CC[C@@H]1O (racemic) [Example 122M, (±)-(Z)-5-(2,3-amino-4-hydroxypiperidin-1-yl)-3-chlorobenzylidene)thiazolidine-2,4-dione hydrochloride]
– | < 5 | O=C1NC(=O)C(=Cc2c[nH]c3ccccc23)S1 (stereo in doubt) [Example 67, (Z)-5-((1H-indol-3-yl)methylene)thiazolidine-2,4-dione]
> 95 | 77.7 | N[C@H]1CCCN(c2c(Cl)cc(C(F)(F)F)cc2/C=C2\SC(=O)NC2=O)C1 [Example 1, (S,Z)-5-(2-(3-aminopiperidin-1-yl)-3-chloro-5-(trifluoromethyl)benzylidene)thiazolidine-2,4-dione trifluoroacetate]
> 95 | > 95 | N[C@@H]1CCCN(c2c(Cl)cc(C(F)(F)F)cc2/C=C2\SC(=O)NC2=O)C1 [Example 2]
> 95 | 58 | NC1CCN(c2c(Cl)cc(C(F)(F)F)cc2/C=C2\SC(=O)NC2=O)CC1 [Example 3]
> 95 | 79.6 | NCC1CCCN(c2c(Cl)cc(C(F)(F)F)cc2/C=C2\SC(=O)NC2=O)C1 (centres unmarked) [Example 4]
> 95 | 79.9 | O=C1NC(=O)/C(=C/c2cc(C(F)(F)F)cc(Cl)c2N2CCCNCC2)S1 [Example 5A]
> 95 | > 95 | N[C@H]1CCN(c2c(Cl)cc(C(F)(F)F)cc2/C=C2\SC(=O)NC2=O)C1 [Example 5B]
79.4 | 9.5 | O=C1NC(=O)/C(=C/c2cc(C(F)(F)F)cc(Cl)c2N2CCN(C3CCCC3)CC2)S1 [Example 6, (Z)-5-(3-chloro-2-(4-cyclopentylpiperazin-1-yl)-5 (trifluoromethyl)benzylidene)thiazolidine-2,4-dione hydrochloride]
5.4 | < 5 | O=C1NC(=O)/C(=C/c2cc(C(F)(F)F)cc(Cl)c2N2CCN(c3ccc(F)cc3)CC2)S1 [Example 7]
16.3 | < 5 | O=C1NC(=O)/C(=C/c2cc(C(F)(F)F)cc(Cl)c2N2CCN(Cc3ccc4c(c3)OCO4)CC2)S1 [Example 8]
6.9 | < 5 | Cc1noc(C2CCN(c3c(Cl)cc(C(F)(F)F)cc3/C=C3\SC(=O)NC3=O)CC2)n1 [Example 9]
> 95 | 50.1 | O=C1NC(=O)/C(=C/c2cc(C(F)(F)F)cc(Cl)c2N2CCC(N3CCCC3)CC2)S1 [Example 10]
89.4 | 17.9 | CC(C)N1CCN(c2c(Cl)cc(C(F)(F)F)cc2/C=C2\SC(=O)NC2=O)CC1 [Example 11]
80.2 | < 5 | CC(C)CN1CCN(c2c(Cl)cc(C(F)(F)F)cc2/C=C2\SC(=O)NC2=O)CC1 [Example 12]
< 5 | < 5 | O=C1NC(=O)/C(=C/c2cc(C(F)(F)F)cc(Cl)c2N2CCC(CCO)CC2)S1 [Example 13]
92.8 | – | O=C1NC(=O)/C(=C/c2cc(C(F)(F)F)cc(Cl)c2N2CCOCC2)S1 [Example 29]
< 5 | – | O=C1NC(=O)/C(=C/c2cnc3[nH]ccc3c2)S1 [Example 80, (5Z)-5-(1H-pyrrolo[2,3-b]pyridin-5-ylmethylene)-1,3-thiazolidine-2,4-dione]
< 5 | – | CN(C)CCCOc1ccccc1/C=C1\SC(=O)NC1=O [Example 81, (5Z)-5-{2-[3-(dimethylamino)propoxy]benzylidene}-1,3-thiazolidine-2,4-dione]
34 | – | O=C1NC(=O)/C(=C/c2cccc(N3CCOCC3)c2)S1 [Example 83, (5Z)-5-(3-morpholin-4-ylbenzylidene)-1,3-thiazolidine-2,4-dione trifluoroacetate]
